Results on 48 compounds are retold here after ChEMBL document CHEMBL4007392, “Modulating Mineralocorticoid Receptor with Non-steroidal Antagonists. New Opportunities for the Development of Potent and Selective Ligands without Off-Target Side Effects” (J Med Chem, 2017).

Some results are limits rather than exact numbers.

Tested on in the first experiment: not listed separately
The experiment is described as follows: Displacement of [3H]-Aldosterone from recombinant rhesus monkey MR expressed in baculovirus infected insect cells after 3 hrs by filter-based Topcount method. Details: species or system Macaca mulatta. Background: Displacement assays read how much labelled ligand stays bound in the presence of the test substance.
One may read the Ki as the equilibrium dissociation constant of an inhibitor or competing ligand from its target. As for `COC(=O)C1=C(C)NC(C)=C(C(=O)OC)C1c1cccc2ccccc12`, the Ki is 61 nM.

As for `CCCSC1=C(C#N)C(c2ccccc2Cl)C(C(=O)Nc2ccccc2OC)=C(C)N1` (stereo not drawn), the Ki was 14.9 nM. Same read-out and setting: the same measure for `COc1cc(C2C(C(=O)Oc3ccccc3)=C(C)NC(C)=C2C(=O)Oc2ccccc2)ccc1O`: 21.5 nM; for `Cc1cccc(Cn2ccnc2C(c2ccccc2)c2ccccc2)c1`: 134 nM; for `CCSC1=C(C#N)C(c2ccccc2Cl)C(C(=O)Nc2ccccc2OC)=C(C)N1` (stereo not drawn): 53 nM. The same measure, in the same setting: under `CC(c1ccccc1)n1ccnc1C(c1ccccc1)c1ccccc1` (stereo not drawn) stands 285 nM.

The target in another experiment is T1, Mineralocorticoid receptor (Homo sapiens, UniProt P08235).
T1 sequence (P08235 whole entry): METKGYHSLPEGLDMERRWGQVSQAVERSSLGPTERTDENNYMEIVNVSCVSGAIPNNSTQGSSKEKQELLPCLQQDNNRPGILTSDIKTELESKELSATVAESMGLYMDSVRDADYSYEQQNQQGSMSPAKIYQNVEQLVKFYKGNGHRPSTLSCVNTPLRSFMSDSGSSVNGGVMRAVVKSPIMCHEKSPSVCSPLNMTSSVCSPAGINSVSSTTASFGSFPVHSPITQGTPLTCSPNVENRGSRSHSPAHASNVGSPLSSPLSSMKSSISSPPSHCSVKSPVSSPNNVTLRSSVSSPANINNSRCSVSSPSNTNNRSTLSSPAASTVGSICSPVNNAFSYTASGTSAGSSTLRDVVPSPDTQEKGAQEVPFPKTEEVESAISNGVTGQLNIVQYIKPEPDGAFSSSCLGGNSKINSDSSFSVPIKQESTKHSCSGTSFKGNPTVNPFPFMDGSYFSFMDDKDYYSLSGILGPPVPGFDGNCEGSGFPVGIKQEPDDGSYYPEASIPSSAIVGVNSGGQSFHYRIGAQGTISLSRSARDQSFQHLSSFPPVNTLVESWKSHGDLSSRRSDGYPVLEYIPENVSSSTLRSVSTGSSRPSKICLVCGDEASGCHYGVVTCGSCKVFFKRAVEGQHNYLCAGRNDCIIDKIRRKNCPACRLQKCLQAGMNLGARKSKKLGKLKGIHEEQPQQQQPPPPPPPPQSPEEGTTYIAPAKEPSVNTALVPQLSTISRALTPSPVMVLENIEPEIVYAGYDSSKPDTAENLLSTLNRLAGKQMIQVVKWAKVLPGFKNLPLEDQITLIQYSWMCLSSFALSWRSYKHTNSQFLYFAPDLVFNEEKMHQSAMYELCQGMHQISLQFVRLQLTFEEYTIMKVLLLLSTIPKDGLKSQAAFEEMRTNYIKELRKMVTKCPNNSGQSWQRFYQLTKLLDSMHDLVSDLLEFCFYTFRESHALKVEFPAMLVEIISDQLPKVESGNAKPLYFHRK
The experiment is described as follows: Antagonist activity at Gal4-fused human MR LBD (671 to 984 residues) expressed in African Green Monkey CV-1 cells assessed as inhibition of aldosterone-induced transactivation activity after 20 hrs by luciferase reporter gene assay. Format: cell-based. (In general: Reporter assays use an easily measured gene product as a stand-in for the process of interest.)
The IC50 is the concentration needed to halve the response being measured. As for `Cc1c(C(=O)Nc2ccc(S(C)(=O)=O)cc2)cc(C[C@H](C)O)n1-c1ccc(Cl)cc1C(F)(F)F` (single isomer, unassigned; atropisomer 2), the IC50 is > 1000 nM. On the same count and under the same terms, under `Cc1[nH]c(C(=O)Nc2ccc(S(C)(=O)=O)cc2)c(C)c1-c1ccccc1C(F)(F)F` stands < 500 nM; under `Cc1cc(C(=O)NCCc2ccccc2)c(C)n1-c1ccccc1C(F)(F)F`, < 500 nM; under `Cc1c(C(=O)Nc2ccc(S(C)(=O)=O)cc2)cn([C@H](C)[C@H](C)O)c1-c1ccc(F)cc1C(F)(F)F` (single isomer, unassigned; atropisomer 2), > 1000 nM. The same measure, in the same setting: under `Cc1c(C(=O)Nc2ccc(S(C)(=O)=O)cc2)cn([C@H](C)[C@H](C)O)c1-c1ccc(F)cc1C(F)(F)F` stands 3.8 nM; under `Cc1c(C(=O)Nc2ccc(S(C)(=O)=O)cc2)cc(C[C@H](C)O)n1-c1ccc(Cl)cc1-c1ccc(F)cc1` (single isomer, unassigned; atropisomer 2), > 1000 nM. Regarding `Cc1ccc(NC(=O)c2cc(C)n(-c3ccccc3C(F)(F)F)c2C)cc1Cl`, the IC50 is < 500 nM. The same measure, in the same setting: under `Cc1cc(C(=O)Nc2ccc(S(N)(=O)=O)cc2)c(C)n1-c1ccccc1C(F)(F)F` stands < 500 nM.

For the compound `Cc1c(C(=O)Nc2ccc(S(C)(=O)=O)cc2)cc([C@H](C)[C@H](C)O)n1-c1ccc(F)cc1C(F)(F)F` (mixture of isomers), the IC50 was 6.2 nM. Still for that read-out and setting: under `Cc1c(C(=O)Nc2ccc(S(C)(=O)=O)cc2)cc(CCO)n1-c1ccc(Cl)cc1C(F)(F)F` (single isomer, unassigned; atropisomer 2) stands > 1000 nM; under `Cc1cc(C(=O)Nc2cccc3ccccc23)c(C)n1-c1ccccc1C(F)(F)F`, < 500 nM; under `Cc1c(C(=O)Nc2ccc(S(C)(=O)=O)cc2)cc(CCF)n1-c1ccc(F)cc1OC(F)F` (single isomer, unassigned; atropisomer 2), > 1000 nM.

The next experiment has as its target T1, Mineralocorticoid receptor. Put plainly: Antagonist activity at Gal4-fused human MR LBD (734 to 985 residues) expressed in CHO-K1 cells after 5 to 6 hrs by luciferase reporter gene assay. Format: cell-based.
`CC1=C(C#N)C(c2cccc3c(=O)cc(C)oc23)C(C(=O)OC(C)C)=C(C)N1` (stereo not drawn) showed an IC50 of 160 nM. On to `CC1=C(C#N)C(c2cccc3c2-c2ccccc2C3=O)C(C(=O)OC(C)C)=C(C)N1` (stereo not drawn), for which the midpoint of inhibition, the IC50, lay at 23 nM. In the case of `CC(=O)C1=C(C)NC(C)=C(C(=O)OC2CCC2)[C@@H]1c1cccc2c(=O)cc(C)oc12`, the IC50 came out at 7 nM. Still for that read-out and setting: the same measure for `CCOc1nccc2c1C(c1ccc(C#N)cc1OC)C(C#N)=C(C)N2` (stereo not drawn): 100 nM.

The compound `CCc1cnc2cccc(C3C(C#N)=C(C)NC(C)=C3C(=O)OC(C)C)c2c1` (stereo not drawn) registered an IC50 of 310 nM.

As for `COC(=O)c1c(C)nc(C)c(C(=O)CC2CCC2)c1-c1cccc2c(=O)cc(C)oc12`, 18 nM corresponded to half-maximal inhibition (IC50).

Another experiment deals with T1, Mineralocorticoid receptor. Put plainly: Displacement of [3H]-Aldosterone from MR overexpressed in human 293 cells measured after overnight incubation by TopCount method. Format: cell-based.
As for `CCC(CC)(c1ccccc1)c1c[nH]c2c(NS(C)(=O)=O)cccc12`, the Ki is ≤ 500 nM.

Regarding `CCC(CC)(c1ccc2c(c1)OCCO2)c1c[nH]c2c(NS(C)(=O)=O)cccc12`, the Ki was ≤ 500 nM. On the same count and under the same terms, the same measure for `CCC(CC)(c1ccc(Cl)cc1)c1c[nH]c2c(NS(C)(=O)=O)cccc12`: ≤ 500 nM. On to `CCC(CC)(c1ccc2ncsc2c1)c1c[nH]c2c(NS(C)(=O)=O)cccc12`, for which the Ki was ≤ 500 nM.

As for `CCC(CC)(c1cc2ccccc2o1)c1c[nH]c2c(NS(C)(=O)=O)cccc12`, the Ki was ≤ 500 nM.

For the compound `CCC(CC)(c1ccc(O)cc1)c1c[nH]c2c(NS(C)(=O)=O)cccc12`, the Ki is ≤ 500 nM.

Another experiment addresses T2, Mineralocorticoid receptor (Homo sapiens) (UniProt P08235).
T2 sequence (whole entry): T1 sequence (P08235 whole entry)
Put plainly: Antagonist activity at full-length human MR expressed in CHO-K1 cells assessed as inhibition of aldosterone-induced response measured after overnight incubation by luminesence analysis. Format: cell-based.
`CCC(O)C(CC)(c1ccc(Br)cc1)n1ncc2c(NS(C)(=O)=O)cccc21` (stereo not drawn): the Inhibitory potency came out at 3 nM. `CCC(O)C(CC(F)F)(c1ccc(C(F)(F)F)cc1)n1ncc2c(NS(C)(=O)=O)cccc21` (stereo not drawn): the Inhibitory potency turned out to be 15 nM.

With `CCC(c1ccc(C(F)(F)F)cc1)(C(O)C(F)F)n1ncc2c(NS(=O)(=O)CC)cc(F)cc21` (stereo not drawn), the Inhibitory potency came out at 11 nM. For the compound `CCC(c1ccc(C(F)(F)F)cc1)(C(O)C(F)F)n1ncc2c(NS(=O)(=O)CC)cccc21` (stereo not drawn), the Inhibitory potency was 4 nM.

As to `CCC(O)C(CC)(c1ccc(C(F)(F)F)cc1)n1ncc2c(NS(C)(=O)=O)cc(F)cc21` (stereo not drawn), the Inhibitory potency amounted to 9 nM.

The target in the next experiment is T1, Mineralocorticoid receptor. Put plainly: Displacement of [3H]-Aldosterone from MR overexpressed in human 293 cells measured after 2 hrs by Microbeta scintillation counting method. Format: cell-based.
With `N#C/N=c1\[nH]c2cc(/C=C3/c4ccc(F)cc4OCc4c(F)cccc43)ccc2n1[C@@H]1C[C@H]2COCCN2C1`, the Ki is ≤ 10 nM. On the same count and under the same terms, the same measure for `C[C@@H](CN1CCOCC1)n1/c(=N/C#N)[nH]c2cc(/C=C3/c4ccc(F)cc4OCc4c(F)cccc43)ccc21`: ≤ 10 nM; for `N#C/N=c1/[nH]c2cc(/C=C3/c4ccc(F)cc4OCc4c(F)cccc43)ccc2n1[C@H]1C[C@H]2COCCN2C1`: ≤ 10 nM. On the same count and under the same terms, under `C[C@H](CN1CCOCC1)n1/c(=N\C#N)[nH]c2cc(/C=C3\c4ccc(F)cc4COc4cc(F)ccc43)ccc21` stands 0.79 nM; under `N#C/N=c1/[nH]c2cc(/C=C3/c4ccc(F)cc4OCc4c(F)cccc43)ccc2n1[C@H]1C[C@@H]2COCCN2C1`, 0.23 nM; under `C[C@H](CN1CCOCC1)n1/c(=N\C(N)=O)[nH]c2cc(/C=C3\c4ccccc4COc4cc(F)ccc43)ccc21` [LY2623091], 0.33 nM. In turn, `CN1CCN(n2/c(=N\C#N)[nH]c3cc(/C=C4\c5ccccc5COc5cc(F)ccc54)ccc32)CC1` registered a Ki of 0.08 nM. Still for that read-out and setting: the same measure for `N#C/N=c1/[nH]c2cc(/C=C3/c4ccc(F)cc4OCc4c(F)cccc43)ccc2n1[C@@H]1C[C@@H]2COCCN2C1`: ≤ 10 nM; for `C[C@@H](CN1CCOCC1)n1/c(=N/C#N)[nH]c2cc(/C=C3\c4ccc(F)cc4COc4cc(F)ccc43)ccc21`: ≤ 10 nM. On the same count and under the same terms, the same measure for `CN1C[C@H](O)[C@@H](n2/c(=N/C#N)[nH]c3cc(/C=C4\c5ccccc5COc5cc(F)ccc54)ccc32)C1`: ≤ 10 nM; for `C[C@H](CN1CCOCC1)n1/c(=N\C#N)[nH]c2cc(/C=C3/c4ccc(F)cc4OCc4c(F)cccc43)ccc21`: ≤ 10 nM. For the compound `C[C@@H](CN1CCOCC1)n1/c(=N/C#N)[nH]c2cc(/C=C3\c4ccccc4COc4cc(F)ccc43)ccc21`, the Ki was ≤ 10 nM. `NC(=O)/N=c1/[nH]c2cc(/C=C3\c4ccccc4COc4cc(F)ccc43)ccc2n1[C@H]1C[C@@H]2COCCN2C1`: the Ki was ≤ 10 nM.
